Data: PMC7809101, “Fetal bovine serum albumin inhibits antimicrobial peptide activity and binds drug only in complex with α1-antitrypsin” (Scientific Reports, 2021)

Legend:
[1] = target: T1, protein D (albumin and α1-antitrypsin complex) (Bos taurus, UniProt P02769+P34955); test: Inhibition of the binding of TP4-A12I,A15I to protein D (band shift competition); design: species or system bovine
T1 construct: The active components were further purified by fast performance liquid chromatography (FPLC) Mono Q and S12 column chromatography from the 70% saturated fraction; from tissue; host or cells: fetal bovine serum (70% ammonium sulfate fraction, FPLC Mono Q and Superose 12)
Description: Reagents were added to the protein A and protein D at the indicated concentrations and excited at […] and recorded for the emission spectrum between 300 to 450 nm.
(§1) Various AMPs (4 μg each) were incubated with fetal bovine serum (FBS) components at room temperature in 10 μl PC buffer for 30 min and subjected to horizontal native 8% PAGE, pH8.0 or pH8.8, and Coomassie Blue staining.

[2] = test system: Escherichia coli K-12 (MG1655); test: Antimicrobial (bactericidal) activity against E. coli, effect of serum or serum proteins; assay type: cell-based; conditions: FBS, PBS, 37 °C (Fig. 1d)
Description: The Gram-negative bacteria Escherichia coli K-12 (MG1655) was cultured and plated in/on Luria–Bertani broth/agar plate (Merck Millipore, Darmstadt, Germany). The Gram-positive Staphylococcus aureus (ATCC 6538P) was cultured and plated in tryptic soy broth/agar (BD, MD, USA). The fungus Candida albicans (ATCC 14,053) was cultured and plated in YM broth/agar (BD, MD, USA). The bacteria were grown overnight, washed, and diluted 1:2000 in phosphate buffered saline (PBS), pH 7.5 or DMEM (Life Biotech, California, USA), pH 7.4. Bacteria (ca. 1 × 10^6 colony-forming units, cfu) were mixed with antimicrobial peptides (AMP) in 100 μl PBS and incubated at 37 °C (for bacteria) and at 30 °C (for fungus). Serial dilutions of each AMP-treated bacteria in PBS/DMEM supplemented with FBS were prepared and plated for the determination of remaining viable cells (expressed as cfu). At least three independent experiments were performed for each assay to determine the average value with standard deviation. MBC was defined as the lowest AMP concentration that kills 99.9% of the original inoculum.

protein A (albumin) [3] = target: T2, protein A (albumin) (Bos taurus, UniProt P02769); test: Fluorescence emission spectrum (blue shift), protein A; assay type: binding, bovine; design: The homogeneities of collected protein A (albumin), protein B (α1-antitrypsin), protein C (serotransferrin) and protein D complex; from tissue; host or cells: fetal bovine serum (70% ammonium sulfate fraction, FPLC Mono Q); conditions: protein A 0.75 μM, PC buffer, 25 °C, 30 min; excitation 285 nm, emission 300–450 nm; reagent up to: sarkosyl 320, TP4-A12I,A15I 120, ibuprofen 24, phenytoin 20 μM
Description: (§2) The mixtures were excited by 285 nm and its emission spectra were recorded between 300 and 450 nm using a temperature-controlled fluorimeter (FP8500, Jasco, Japan)[13].

crude bovine serum = test: Pulling down of proteins from crude bovine serum by biotinylated TP4-A12I,A15I; assay type: binding
Description: (§3) Streptavidin-conjugated beads were incubated with 10 μg of biotinylated TP4-A12I,A15I peptides in 600 μl PC buffer for one hour on a rolling wheel. The immobilized biotinylated AMPs were further mixed with serum components in the indicated 600 μl buffer(s) at room temperature for 30 min on a rolling wheel, then washed twice with 600 μl respective buffer and subjected to SDS-PAGE and Coomassie Blue staining. Specific proteins were excised from SDS-PAGE gel and subjected to in-gel trypsin digestion and liquid chromatography-tandem mass spectrometry.

[4] = target: T1, protein D (albumin and α1-antitrypsin complex); test: Fluorescence emission spectrum (blue shift), protein D; assay type: binding, bovine; conditions: protein D 0.75 μM, PC buffer, 25 °C, 30 min; excitation 285 nm, emission 300–450 nm; reagent up to: sarkosyl 320, TP4-A12I,A15I 120, ibuprofen 24, phenytoin 20 μM
Description: as §2

[5] = target: T1, protein D (albumin and α1-antitrypsin complex); test: Band shift of AMPs by protein D; assay type: binding, bovine
protein A (albumin) [6] = target: T2, protein A (albumin); test: Pulling down of protein A by immobilized biotinylated TP4-A12I,A15I; assay type: binding, bovine; design: The homogeneities of collected protein A (albumin), protein B (α1-antitrypsin), protein C (serotransferrin) and protein D complex; from tissue; host or cells: fetal bovine serum (70% ammonium sulfate fraction, FPLC Mono Q); conditions: biotinylated peptide on Streptavidin-conjugated beads; PC buffer, room temperature, 30 min
Description: as §3

[7] = target: T3, protein B (α1-antitrypsin) (Bos taurus, UniProt P34955); conditions: biolayer interferometry, Octet RED384; immobilized biotinylated TP4-A12I,A15I
T3 sequence (P34955 25-416): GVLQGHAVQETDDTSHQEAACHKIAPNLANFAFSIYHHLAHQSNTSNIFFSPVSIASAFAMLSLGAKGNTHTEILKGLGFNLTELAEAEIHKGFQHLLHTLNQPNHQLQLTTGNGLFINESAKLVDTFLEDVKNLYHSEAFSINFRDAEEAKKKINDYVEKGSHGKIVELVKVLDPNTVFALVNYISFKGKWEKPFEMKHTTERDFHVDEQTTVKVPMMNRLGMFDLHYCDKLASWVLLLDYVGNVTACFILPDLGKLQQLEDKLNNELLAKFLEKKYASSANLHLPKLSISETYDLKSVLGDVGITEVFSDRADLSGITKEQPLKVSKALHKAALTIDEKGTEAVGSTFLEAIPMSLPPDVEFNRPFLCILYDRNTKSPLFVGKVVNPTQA
Description: (§4) The biolayer interferometry were measured by an Octet RED384 instrument (ForteBio). […] Serial dilutions of serum components in 200 μl PC buffer were used as analyte. Affinity (Kd) and kinetic parameters (kon and koff) were calculated from a global fit (1:1) of the data using the Octet RED384 software[27].

[8] = target: T1, protein D (albumin and α1-antitrypsin complex); test: Cross-linking of AMP-protein D complex and Western blotting; assay type: binding, bovine; conditions: AMP/protein D cross-linked with glutaraldehyde, PC buffer, 37 °C, 30 min; reduced SDS-PAGE, Western blotting
Description: Small aliquots of serum components (4 μg) in the presence/absence of AMPs (2 μg) were incubated with various concentrations of glutaraldehyde in 10 μl PC buffer at 37 °C for 30 min. […]

fetal bovine serum (FBS) = test: Band shift of AMPs by fetal bovine serum; assay type: binding
Description: as §1

[9] = target: T1, protein D (albumin and α1-antitrypsin complex); test: Pulling down of protein D by immobilized biotinylated TP4-A12I,A15I; assay type: binding, bovine
Description: as §3

[10] = target: T1, protein D (albumin and α1-antitrypsin complex); test: Biolayer interferometry, protein D; assay type: binding, bovine; conditions: biotinylated TP4-A12I,A15I
Description: as §4

protein A (albumin) [11] = target: T2, protein A (albumin); conditions: biolayer interferometry, Octet RED384; immobilized biotinylated TP4-A12I,A15I
Description: as §4

protein A/D mixture = test: FPLC S12 gel filtration of proteins A/D mixture with TP4-A12I,A15I; assay type: binding, bovine; conditions: reduced SDS-PAGE of eluates
Text: To further investigate the differential binding of AMP to protein A and protein D, the TP4-A12I,A15I and protein A/D was mixed and subjected to gel filtration chromatography (FPLC S12). There was a front shoulder on the elution profile (Fig. 3g).

serum protein = conditions: cited from earlier work
Description: Albumin is the most abundant protein in human serum (HSA, 45 mg/ml), followed in descending order by α1-antitrypsin (A1AT, 3.5 mg/ml), transferrin (2.5 mg/ml), α2-macroglobulin (2.5 mg/ml), haptoglobulin (1.8 mg/ml), low-density lipoprotein (LDL, 1.2 mg/ml), α1-acid glycoprotein (AGP, 0.8 mg/ml) and high-density lipoprotein (HDL, 0.6 mg/ml)[11]. These proteins are involved in the transportation of fatty acids, cholesterols, toxins and drugs in the blood stream.

T1 sequence (P02769 25-607, one chain of several): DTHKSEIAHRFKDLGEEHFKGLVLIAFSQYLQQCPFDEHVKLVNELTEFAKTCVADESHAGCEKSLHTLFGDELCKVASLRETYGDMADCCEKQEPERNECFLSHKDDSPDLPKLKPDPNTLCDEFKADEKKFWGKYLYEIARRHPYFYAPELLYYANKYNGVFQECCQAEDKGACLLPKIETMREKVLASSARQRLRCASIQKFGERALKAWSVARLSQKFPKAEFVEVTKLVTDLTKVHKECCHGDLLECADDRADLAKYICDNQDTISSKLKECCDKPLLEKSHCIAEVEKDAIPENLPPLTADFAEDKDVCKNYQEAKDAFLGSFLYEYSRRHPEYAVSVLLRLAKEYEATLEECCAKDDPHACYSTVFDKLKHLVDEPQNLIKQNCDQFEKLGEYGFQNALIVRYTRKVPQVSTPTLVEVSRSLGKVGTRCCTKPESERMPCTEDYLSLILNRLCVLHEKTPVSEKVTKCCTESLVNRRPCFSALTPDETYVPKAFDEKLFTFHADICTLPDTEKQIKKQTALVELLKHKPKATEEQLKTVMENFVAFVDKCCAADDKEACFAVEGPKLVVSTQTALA
T2 sequence (P02769 25-607): as the sequence (P02769 25-607, one chain of several) above

For `CC[C@H](C)[C@H](NC(=O)[C@H](CO)NC(=O)[C@H](Cc1ccccc1)NC(=O)[C@H](CC(C)C)NC(=O)CNC(=O)CNC(=O)[C@@H](NC(=O)[C@@H](NC(=O)[C@H](Cc1c[nH]cn1)NC(=O)[C@H](Cc1c[nH]cn1)NC(=O)[C@@H](NC(=O)[C@@H](N)Cc1ccccc1)[C@@H](C)CC)[C@@H](C)CC)[C@@H](C)CC)C(=O)NCC(=O)N[C@@H](CCCCN)C(=O)N[C@H](C(=O)N[C@H](C(=O)N[C@@H](Cc1c[nH]cn1)C(=O)N[C@@H](CCCNC(=N)N)C(=O)N[C@@H](CC(C)C)C(=O)N[C@H](C(=O)N[C@@H](CCCNC(=N)N)C(=O)N[C@@H](CCCNC(=N)N)C(=O)N[C@@H](CCCNC(=N)N)C(=O)N[C@@H](CCCNC(=N)N)C(=O)N[C@@H](CCCNC(=N)N)C(=O)O)[C@@H](C)CC)[C@@H](C)CC)[C@@H](C)CC` [TP4-A12I,A15I], which “proposed binding site in protein D” value ([1]; inferred from competition and fluorescence) is on record?
Its value is “probably at the drug-binding site II of albumin in the protein D complex”.

And the “susceptibility of bactericidal activity to serum's inhibition (E. coli), relative to TP4” value [2]?
Its value is “more susceptible to serum’s inhibition”.

What about the “blue shift of fluorescence emission spectrum, protein A” value (protein A (albumin) [3]) of the same compound?
Its value is “did not cause blue shift”.

And the “location of TP4-A12I,A15I-binding components after ammonium sulfate fractionation (pulling down)” value (crude bovine serum; 30%, 50%, 70% and 90% saturation, pulling down)?
The value was “mainly located at the 70% ammonia sulfate saturation fraction”.

What about the “proteins pulled down from crude serum (major band)” value (crude bovine serum; biotinylated TP4-A12I,A15I on Streptavidin-conjugated beads, SDS-PAGE, LC/MS/MS, major band) of the same compound?
Its value is “major band consisted of albumin and α1-antitrypsin”.

And the “proteins pulled down from crude serum (minor band)” value (crude bovine serum; biotinylated TP4-A12I,A15I on Streptavidin-conjugated beads, SDS-PAGE, LC/MS/MS, minor band)?
The value was “minor band was identified to be apolipoprotein AI (Apo-AI)”.

What about the “blue shift of fluorescence emission spectrum, protein D” value [4] of the same compound?
Its value is “blue shift of fluorescence emission spectrum of protein D was observed”.

And the “change of binding ability to protein D by mutation of TP4” value ([5]; band shift, Supplementary Fig. 3b, TP4 mutants 4 μg, 8% horizontal native PAGE)?
The value was “increased the binding ability”.

And the “binding to protein D (band shift, Fig. 7b)” value ([5]; protein A and D mixture (20 μg each), TP4-A12I,A15I 4 μg, 37 °C, 30 min, native PAGE, pH8.8)?
The value was “only protein D, but not protein A, was bound”.

What about the “AMP-binding ability of protein D reduced by β-ME (band shift)” value ([5]; protein D reduced by β-ME, band shift (Fig. 4e)) of the same compound?
The value was “destroyed”.

What about the “binding to protein A (pulling down)” value (protein A (albumin) [6]) of the same compound?
Its value is “not by protein A”.

And the “Kd (protein B)” value [7]?
The value was “not detectable”.

What about the “association with proteins after cross-linking” value [8] of the same compound?
The value was “associated with protein A, protein B as well as monomeric and dimeric protein D”.

What about the “location of TP4-A12I,A15I-binding components after ammonium sulfate fractionation (band shift)” value (fetal bovine serum (FBS); 30%, 50%, 70% and 90% saturation, band shift) of the same compound?
The value was “mainly located at the 70% ammonia sulfate saturation fraction”.

And the “FBS-mediated band shift of TP4 mutants” value (fetal bovine serum (FBS); AMP 4 μg with FBS, 10 μl PC buffer, room temperature, 30 min, horizontal native 8% PAGE, pH8.0)?
Its value is “enhanced the shift”.

And the “binding of protein D in the presence of SDS (dimerization inhibited)” value ([9]; 2 × SDS, equivalent to 0.125% SDS (w/v), pulling down, 15% non-reducing SDS-PAGE)?
Its value is “unable to bind”.

And the “protein retained on immobilized TP4-A12I,A15I after β-ME wash” value ([9]; pulled-down protein D dissociated by β-ME (1X = 0.25%), 8% reduced SDS-PAGE)?
Its value is “only protein B was still tightly associated”.

And the “binding of protein D constituents after dissociation by β-ME” value ([9]; β-ME 0.1–0.4%, pulling down (Fig. 4f))?
Its value is “some protein D constituents were able to bind”.

And the “reversibility and potency of binding of protein D” value [10]?
The value was “potent and reversible binding”.

And the “Kd (protein A)” value (protein A (albumin) [11])?
Its value is “not detectable”.

What about the “co-elution with albumin in gel filtration” value (protein A/D mixture) of the same compound?
Its value is “co-eluted with albumin only at the front shoulder fractions”.

For `O=C1NC(=O)C(c2ccccc2)(c2ccccc2)N1` [phenytoin], which “inhibition of binding of TP4-A12I,A15I to protein D” value ([1]; protein A and D mixture (20 μg each) pre-incubated with drug 30 min, then TP4-A12I,A15I (4 μg) at 37 °C, 30 min, native PAGE, pH8.8) is on record?
The value was “not”.

What about the “bound to serum protein” value (serum protein) of the same compound?
The value was 90%.

And the “blue shift of fluorescence emission spectrum, protein A” value (protein A (albumin) [3])?
Its value is “no blue shift was seen”.

What about the “blue shift of fluorescence emission spectrum, protein D” value [4] of the same compound?
Its value is “no blue shift was seen”.
